The values that follow come from patent US7462614B2, “Imidazotriazine compounds” (Smithkline Beecham Corporation, priority 2003, dated 2008).

T1 sequence (P53350 21-346): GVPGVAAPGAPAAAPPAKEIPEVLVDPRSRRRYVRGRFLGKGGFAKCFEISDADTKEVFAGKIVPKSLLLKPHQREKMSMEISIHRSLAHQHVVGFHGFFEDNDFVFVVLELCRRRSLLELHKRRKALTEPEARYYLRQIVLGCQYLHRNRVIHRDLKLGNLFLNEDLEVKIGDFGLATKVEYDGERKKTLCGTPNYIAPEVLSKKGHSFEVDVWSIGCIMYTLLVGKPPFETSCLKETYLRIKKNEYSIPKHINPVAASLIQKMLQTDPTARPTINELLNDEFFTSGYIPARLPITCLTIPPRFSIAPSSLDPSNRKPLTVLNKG

The experiment concerns the target T1, truncated human PLK1 (kinase domain) (Homo sapiens, UniProt P53350).
T1 construct: made in house; host or cells: baculovirus-infected T. ni insect cells
Description: Assay for Inhibition of PLK1 (33P SPA enzyme activity). As to conditions: 1 μM ATP, 2 nM enzyme; read-out: Ave pIC50 PLK Enzyme Inhibition (converted). The format is biochemical. On the procedure: I. Assay for Inhibition of PLK1
A. Preparation of 6× N-Terminal His-Tagged PLK Kinase Domain
All procedures are performed at 4° C. Cells are lysed in 25 mM HEPES, 200 mM NaCl, 25 mM imidazole; pH 8.0. The homogenate is centrifuged at 14K rpm in a SLA-1500 rotor for 40 min and the supernatant filtered through a 1.2 micron filter. The supernatant is loaded onto a Nickel chelating Sepharose (Amersham Pharmacia) column and washed with 25 mM HEPES, 500 mM NaCl, 25 mM imidazole; pH 8.0. […] PLK is concentrated using a 10 kDa molecular weight cutoff membrane and then loaded onto a Superdex 75 gel filtration (Amersham BioSciences) column equilibrated in 25 mM HEPES, 1 mM DTT, 500 mM NaCl; pH 8.0. Fractions containing PLK are determined by SDS-PAGE. PLK is pooled, aliquoted and stored at […]. Samples are quality controlled using mass spectrometry.
B. Enzyme Activity±Inhibitors is Determined As Follows:
Compounds are added to the plate (1 μL in 100% DMSO).
Immediately upon addition of enzyme and thorough mixing, add 20 uL per well into 384-well white plates containing compounds and controls. […] The enzymatic reaction is stopped with 50 μl of bead mix (50 mM EDTA, 2 mg/ml Streptavidin-coated SPA beads in Standard Dulbecco's PBS (without Mg^2+and Ca^2+), and 60 μM ATP).
For the compound `COc1cc(Nc2ncc3c(C)nc(-c4ccccc4[N+](=O)[O-])n3n2)cc(OC)c1OC` [Example 2, 5-Methyl-7-(2-nitrophenyl)-N-(3,4,5-trimethoxyvhenyl)imidazo[5,1-f][1,2,4]triazin-2-amine], the IC50 is 100 to 10000 nM.
On to `COc1cc(Nc2ncc3c(C)nc(-c4ccccc4Br)n3n2)cc(OC)c1OC` [Example 3], for which the IC50 is 100 to 10000 nM.
For `COc1cc(Nc2ncc3c(C)nc(-c4ccc(F)cc4)n3n2)cc(OC)c1OC` [Example 4, 7-(4-Fluorophenyl)-5-methyl-N-(3,4,5-trimethoxyphenyl)imidazo-[5,1-f][1,2,4]triazin-2-amine], the IC50 was less than 100 nM.
Regarding `COc1cc(Nc2ncc3c(C)nc(-c4ccccc4NC(=O)C(C)(C)C)n3n2)cc(OC)c1OC` [Example 6, 2,2-Dimethyl-N-(2-{5-methyl-2-[(3,4,5-trimethoxyphenyl)amino]-imidazo[5,1-f][1,2,4]triazin-7-yl}phenyl)propanamide], the IC50 was greater than 10000 nM.
`COc1cc(Nc2ncc3c(C)nc(-c4ccccc4NC(=O)C(F)(F)F)n3n2)cc(OC)c1OC` [Example 7, 2,2,2-Trifluoro-N-(2-{5-methyl-2-[(3,4,5-trimethoxyphenyl)amino]-imidazo[5,1-f][1,2,4]triazin-7-yl}phenyl)acetamide]: the IC50 is 100 to 10000 nM.
The value for `COc1cc(Nc2ncc3c(C)nc(-c4sccc4Br)n3n2)cc(OC)c1OC` [Example 10, 7-(3-Bromothien-2-yl)-5-methyl-N-(3,4,5-trimethoxyphenyl)-imidazo[1,5-f][1,2,4]triazin-2-amine] was 100 to 10000 nM; that for `COc1cc(Nc2ncc3c(C)nc(-c4cncc(Br)c4)n3n2)cc(OC)c1OC` [Example 11, 7-(5-Bromopyridin-3-yl)-5-methyl-N-(3,4,5-trimethoxyphenyl)-imidazo[5.1-f][1,2,4]triazin-2-amine] was 100 to 10000 nM; that for `COC(=O)c1cccc(-c2nc(C)c3cnc(Nc4cc(OC)c(OC)c(OC)c4)nn23)c1` [Example 12, Methyl 3-{5-methyl-2-[(3,4,5-trimethoxyphenyl)amino]imidazo[5,1-f][1,2,4]triazin-7-yl}benzoate] was 100 to 10000 nM.
The figure for `COc1cc(Nc2ncc3c(C)nc(-c4ccc(Br)s4)n3n2)cc(OC)c1OC` [Example 13, 7-(5-Bromothien-2-yl)-5-methyl-N-(3,4,5-trimethoxyphenyl)imidazo-[5,1-f][1,2,4]triazin-2-amine] is 100 to 10000 nM.
The value for `CCS(=O)(=O)c1ccc(OC)c(Nc2ncc3c(C)nc(-c4cccc(Br)c4)n3n2)c1` [Example 14, 7-(3-Bromophenyl)-N-[5-(ethylsulfonyl)-2-methoxyphenyl]-5-methylimidazo[5,1-f][1,2,4]triazin-2-amine] was 100 to 10000 nM; that for `Cc1nc(-c2cccc(Br)c2)n2nc(Nc3ccc(N4CCOCC4)c(Cl)c3)ncc12` [Example 15, 7-(3-Bromophenyl)-N-(3-chloro-4-morpholin-4-ylphenyl)-5-methylimidazo[5,1-f][1,2,4]triazin-2-amine] was 100 to 10000 nM.
Consider `COc1cc(Nc2ncc3c(C)nc(-c4cccc(/C=C/C(N)=O)c4)n3n2)cc(OC)c1OC` [Example 17, (2E)-3-(3-{5-Methyl-2-[(3,4,5-trimethoxyphenyl)amino]imidazo[5,1-f][1 2,4]triazin-7-yl}phenyl)prop-2-enamide], for which the IC50 is less than 100 nM.
As for `Cc1nc(-c2ccccc2)n2nc(Nc3ccc([N+](=O)[O-])cc3)ncc12` [Example 18, 5-Methyl-N-(4-nitrophenyl)-7-phenylimidazo[5,1-f][1,2,4]triazin-2-amine], the IC50 was 100 to 10000 nM.
For the compound `Cc1nc(-c2ccccc2)n2nc(Nc3ccc(S(N)(=O)=O)cc3)ncc12` [Example 20, 4-[(5-Methyl-7-phenylimidazo[5,1-f][1,2,4]triazin-2-yl)amino]benzenesulfonamide], the IC50 is 100 to 10000 nM.
The value for `COc1ccccc1-c1nc(C)c2cnc(Nc3cc(OC)c(OC)c(OC)c3)nn12` [Example 21, 7-(2-Methoxyphenyl)-5-methyl-N-(3,4,5-trimethoxyphenyl)-imidazo[5,1-f][1,2,4]triazin-2-amine] was 100 to 10000 nM.
Take `Cc1nc(-c2ccccc2)n2nc(Nc3cccc(C(F)(F)F)c3)ncc12` [Example 26, 5-Methyl-7-phenyl-N-[3-(trifluoromethyl)phenyl]imidazo[5,1-f][1,2,4]triazin-2-amine]: the IC50 is 100 to 10000 nM.
The value for `COc1cc(Nc2ncc3c(C)nc(-c4ccc5c(c4)OCO5)n3n2)cc(OC)c1OC` [Example 28, 7-(1,3-Benzodioxol-5-yl)-5-methyl-N-(3,4,5-trimethoxyphenyl)-imidazo[5,1-f][1,2,4]triazin-2-amine] was 100 to 10000 nM; that for `COC(=O)c1ccc(-c2nc(C)c3cnc(Nc4cc(OC)c(OC)c(OC)c4)nn23)cc1` [Example 29, Methyl 4-{5-methyl-2-[(3,4,5-trimethoxyphenyl)amino]imidazo-[5,1-f][1,2,4]triazin-7-yl}benzoate] was 100 to 10000 nM.
For the compound `COc1cc(Nc2ncc3c(C)nc(-c4cccc(N)c4)n3n2)cc(OC)c1OC` [Example 31, 7-(3-Aminophenyl)-5-methyl-N-(3,4,5-trimethoxyphenyl)imidazo-[5,1-f][1,2,4]triazin-2-amine], the IC50 was less than 100 nM.
The figure for `COc1cc(Nc2ncc3c(C)nc(-c4cc5ccccc5[nH]4)n3n2)cc(OC)c1OC` [Example 32, 7-(1H-Indol-2-yl)-5-methyl-N-(3,4,5-trimethoxyphenyl)imidazo-[5,1-f][1,2,4]triazin-2-amine] is 100 to 10000 nM.
With `COc1cc(Nc2ncc3c(C)nc(-c4ccc([N+](=O)[O-])[nH]4)n3n2)cc(OC)c1OC` [Example 33, 5-Methyl-7-(5-nitro-1H-pyrrol-2-yl)-N-(3,4,5-trimethoxyphenyl)-imidazo[5,1-f][1,2,4]triazin-2-amine], the IC50 was 100 to 10000 nM.
The figure for `COc1cc(Nc2ncc3c(C)nc(-c4cccn4C)n3n2)cc(OC)c1OC` [Example 34, 5-Methyl-7-(1-methyl-1H-pyrrol-2-yl)-N-(3,4,5-trimethoxyphenyl)-imidazo[5,1-f][1,2,4]triazin-2-amine] is 100 to 10000 nM.
The figure for `COc1cc(Nc2ncc3c(C)nc(-c4cn(C)c5ccccc45)n3n2)cc(OC)c1OC` [Example 35, 5-Methyl-7-(1-methyl-1H-indol-3-yl)-N-(3,4,5-trimethoxyphenyl)-imidazo[5,1-f][1,2,4]triazin-2-amine] is 100 to 10000 nM.
The value for `COc1cc(Nc2ncc3c(C)nc(-c4ccoc4)n3n2)cc(OC)c1OC` [Example 36, 7-(3-Furyl)-5-methyl-N-(3,4,5-trimethoxyphenyl)imidazo[5,1-f][1,2,4]triazin-2-amine] was 100 to 10000 nM; that for `COc1cc(Nc2ncc3c(C)nc(-c4ccc5[nH]ccc5c4)n3n2)cc(OC)c1OC` [Example 37, 7-(1H-Indol-5-yl)-5-methyl-N-(3,4,5-trimethoxyphenyl)imidazo-[5,1-f][1,2,4]triazin-2-amine] was 100 to 10000 nM.
On to `COc1cc(Nc2ncc3c(C)nc(-c4ccccc4Sc4ccccc4C#N)n3n2)cc(OC)c1OC` [Example 38, 2-[(2-{5-Methyl-2-[(3,4,5-trimethoxyphenyl)amino]imidazo[5,1-f][1,2,4]triazin-7-yl}phenyl)thio]benzonitrile], for which the IC50 was 100 to 10000 nM.
The value for `COc1cc(Nc2ncc3c(C)nc(-c4ccccc4Nc4cccc(C(F)(F)F)c4)n3n2)cc(OC)c1OC` [Example 39, 5-Methyl-7-(2-{[3-(trifluoromethyl)phenyl]amino}phenyl)-N-(3,4,5-trimethoxyphenyl)imidazo[5,1-f][1,2,4]triazin-2-amine] was greater than 10000 nM.
For the compound `COc1cc(Nc2ncc3c(C)nc(-c4cccc5cccnc45)n3n2)cc(OC)c1OC` [Example 40, 5-Methyl-7-quinolin-8-yl-N-(3,4 5-trimethoxyphenyl)imidazo[5,1-f][1,2,4]triazin-2-amine], the IC50 was greater than 10000 nM.
The value for `Cc1nc(-c2cccc(C(F)(F)F)c2)n2nc(Nc3ccc(S(N)(=O)=O)cc3)ncc12` [Example 45, 4-({5-Methyl-7-[3-(trifluoromethyl)phenyl]imidazo[5,1-f][1,2,4]triazin-2-yl}amino)benzenesulfonamide] was 100 to 10000 nM; that for `Cc1nc(-c2cccc(C(F)(F)F)c2)n2nc(Nc3ccc(O)cc3)ncc12` [Example 49, 4-({5-Methyl-7-[3-(trifluoromethyl)phenyl]imidazo[5,1-f][1,2,4]triazin-2-yl}amino)phenol] was less than 100 nM.
As for `Cc1nc(-c2cccc(C(F)(F)F)c2)n2nc(Nc3ccc(OCCN4CCCC4)cc3)ncc12` [Example 50, 5-Methyl-N-[4-(2-pyrrolidin-1-ylethoxy)phenyl]-7-[3-(trifluoromethyl)phenyl]imidazo[5,1-f][1,2,4]triazin-2-amine], the IC50 is 100 to 10000 nM.
Turning to `COc1ccc(F)cc1Nc1ncc2c(C)nc(-c3cccc(C(F)(F)F)c3)n2n1` [Example 51, N-(5-Fluoro-2-methoxyphenyl)-5-methyl-7-[3-(trifluoromethyl)phenyl]-imidazo[5,1-f][1,2,4]triazin-2-amine], the IC50 was 100 to 10000 nM.
